Laboratory results from PubChem BioAssay AID1963858 (Molecular Pharmacology Branch, DTP, NCI, 2024).
pIC50: −log10 of the molar value.

Tested on: HOP-62 multicell spheroids with HUVEC/MSC, viability
Experiment: Anticancer human tumor HOP-62 cell line growth inhibition [KRAS2];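 note: viability read after a week of compound exposure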;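 for viability, T/C: 100% = DMSO vehicle-treated spheroids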
Details: for pIC50: curve of first compound; for viability, T/C: stronger effect = lower value
How it was run: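 Combination screen of spheroid viability in tumor-cell co-cultures with endothelial (HUVEC) and mesenchymal stem cell stroma. Each agent was tested in half-log dilutions, topping at clinical Cmax or at 10 microM without a known Cmax.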

[1] = second compound 0.0316 µM, first compound 0.0316 µM
[2] = second compound 0.0316 µM, first compound 0.1 µM
[3] = second compound 0.1 µM, first compound 0.0316 µM
[4] = second compound 0.1 µM, first compound 0.1 µM
[5] = second compound 0.1 µM, first compound 0.316 µM
[6] = second compound 0.1 µM, first compound 1 µM
[7] = second compound 0.1 µM, first compound 3.16 µM
[8] = second compound 0.316 µM, first compound 0.0316 µM
[9] = second compound 0.316 µM, first compound 0.1 µM
[10] = second compound 0.316 µM, first compound 0.316 µM
[11] = second compound 0.316 µM, first compound 1 µM
[12] = second compound 0.316 µM, first compound 3.16 µM
[13] = second compound 1 µM, first compound 0.0316 µM
[14] = second compound 1 µM, first compound 0.1 µM
[15] = second compound 1 µM, first compound 0.316 µM
[16] = second compound 1 µM, first compound 1 µM
[17] = second compound 1 µM, first compound 3.16 µM
[18] = second compound 3.16 µM, first compound 0.0316 µM
[19] = second compound 3.16 µM, first compound 0.1 µM
[20] = second compound 3.16 µM, first compound 0.316 µM
[21] = second compound 3.16 µM, first compound 1 µM
[22] = second compound 3.16 µM, first compound 3.16 µM
[23] = second compound 0.1 µM, first compound 0.000316 µM
[24] = second compound 0.1 µM, first compound 0.001 µM
[25] = second compound 0.1 µM, first compound 0.00316 µM
[26] = second compound 0.1 µM, first compound 0.01 µM
[27] = second compound 0.316 µM, first compound 0.000316 µM
[28] = second compound 0.316 µM, first compound 0.001 µM
[29] = second compound 0.316 µM, first compound 0.00316 µM
[30] = second compound 0.316 µM, first compound 0.01 µM
[31] = second compound 1 µM, first compound 0.000316 µM
[32] = second compound 1 µM, first compound 0.001 µM
[33] = second compound 1 µM, first compound 0.00316 µM
[34] = second compound 1 µM, first compound 0.01 µM
[35] = second compound 3.16 µM, first compound 0.000316 µM
[36] = second compound 3.16 µM, first compound 0.001 µM
[37] = second compound 3.16 µM, first compound 0.00316 µM
[38] = second compound 3.16 µM, first compound 0.01 µM
[39] = second compound 10 µM, first compound 0.01 µM
[40] = second compound 10 µM, first compound 0.0316 µM
[41] = second compound 10 µM, first compound 0.1 µM
[42] = second compound 10 µM, first compound 0.316 µM
[43] = second compound 10 µM, first compound 1 µM
[44] = second compound 10 µM, first compound 3.16 µM

CC(C)NCC(C(=O)N1CCN(c2ncnc3c2C(C)CC3O)CC1)c1ccc(Cl)cc1 (configuration not stated) + C=CC(=O)N1CCN(c2nc(OCC3CCCN3C)nc3c2CCN(c2cccc4cccc(C)c24)C3)CC1CC#N
pIC50 (second compound 0.0316 µM): 6.76
pIC50 (second compound 0.1 µM): 7.32
pIC50 (second compound 0.316 µM): > 7.50
pIC50 (second compound 1 µM): > 7.50
pIC50 (second compound 3.16 µM): > 7.50
viability, T/C [1]: 76.8%
viability, T/C [2]: 57.4%
viability, T/C (second compound 0.0316 µM, first compound 0.316 µM): 42.4%
viability, T/C (second compound 0.0316 µM, first compound 1 µM): 18.6%
viability, T/C (second compound 0.0316 µM, first compound 3.16 µM): 8.82%
viability, T/C (second compound 0.0316 µM, first compound 10 µM): 6.71%
viability, T/C [3]: 55.9%
viability, T/C [4]: 39.7%
viability, T/C [5]: 16.1%
viability, T/C [6]: 9.65%
viability, T/C [7]: 6.16%
viability, T/C (second compound 0.1 µM, first compound 10 µM): 5.4%
viability, T/C [8]: 39.4%
viability, T/C [9]: 29.7%
viability, T/C [10]: 15.2%
viability, T/C [11]: 9.41%
viability, T/C [12]: 5.86%
viability, T/C (second compound 0.316 µM, first compound 10 µM): 5.37%
viability, T/C [13]: 29.8%
viability, T/C [14]: 21%
viability, T/C [15]: 14.1%
viability, T/C [16]: 7.91%
viability, T/C [17]: 5.78%
viability, T/C (second compound 1 µM, first compound 10 µM): 5%
viability, T/C [18]: 0.51%
viability, T/C [19]: 0.35%
viability, T/C [20]: 0.44%
viability, T/C [21]: 0.32%
viability, T/C [22]: 0.31%
viability, T/C (second compound 3.16 µM, first compound 10 µM): 0.41%

Cn1ncnc1[C@H]1c2n[nH]c(=O)c3cc(F)cc(c23)N[C@@H]1c1ccc(F)cc1 + C=CC(=O)N1CCN(c2nc(OCC3CCCN3C)nc3c2CCN(c2cccc4cccc(C)c24)C3)CC1CC#N
pIC50 (second compound 0.0316 µM): < 7.00
pIC50 (second compound 0.1 µM): 8.01
pIC50 (second compound 0.316 µM): > 9.50
pIC50 (second compound 1 µM): > 9.50
pIC50 (second compound 3.16 µM): > 9.50
viability, T/C (second compound 0.0316 µM, first compound 0.000316 µM): 88.8%
viability, T/C (second compound 0.0316 µM, first compound 0.001 µM): 79.7%
viability, T/C (second compound 0.0316 µM, first compound 0.00316 µM): 82.3%
viability, T/C (second compound 0.0316 µM, first compound 0.01 µM): 75.7%
viability, T/C [1]: 74.3%
viability, T/C [2]: 59.7%
viability, T/C [23]: 64.6%
viability, T/C [24]: 58.3%
viability, T/C [25]: 74%
viability, T/C [26]: 49.8%
viability, T/C [3]: 41.9%
viability, T/C [4]: 44.7%
viability, T/C [27]: 48.7%
viability, T/C [28]: 42%
viability, T/C [29]: 40.6%
viability, T/C [30]: 38.5%
viability, T/C [8]: 30.6%
viability, T/C [9]: 33%
viability, T/C [31]: 32.4%
viability, T/C [32]: 30.2%
viability, T/C [33]: 27.1%
viability, T/C [34]: 25.7%
viability, T/C [13]: 24.8%
viability, T/C [14]: 22.1%
viability, T/C [35]: 0.61%
viability, T/C [36]: 0.57%
viability, T/C [37]: 0.44%
viability, T/C [38]: 0.5%
viability, T/C [18]: 0.51%
viability, T/C [19]: 0.71%

CC(=O)OC12COC1CC(O)C1(C)C(=O)C(O)C3=C(C)C(OC(=O)C(O)C(NC(=O)OC(C)(C)C)c4ccccc4)CC(O)(C(OC(=O)c4ccccc4)C21)C3(C)C (configuration not stated) + COc1cc2nc(C)nc(NC(C)c3cc(N)cc(C(F)(F)F)c3)c2cc1OC1CCOC1
pIC50 (second compound 0.1 µM): > 8.00
pIC50 (second compound 0.316 µM): > 8.00
pIC50 (second compound 1 µM): > 8.00
pIC50 (second compound 3.16 µM): > 8.00
pIC50 (second compound 10 µM): > 8.00
viability, T/C [26]: 40%
viability, T/C [3]: 32.3%
viability, T/C [4]: 36.2%
viability, T/C [5]: 32.7%
viability, T/C [6]: 37.5%
viability, T/C [7]: 53.4%
viability, T/C [30]: 38.5%
viability, T/C [8]: 35.6%
viability, T/C [9]: 34.4%
viability, T/C [10]: 27.5%
viability, T/C [11]: 40.9%
viability, T/C [12]: 41%
viability, T/C [34]: 29.7%
viability, T/C [13]: 35.1%
viability, T/C [14]: 34.2%
viability, T/C [15]: 39.5%
viability, T/C [16]: 39.6%
viability, T/C [17]: 38.7%
viability, T/C [38]: 29.7%
viability, T/C [18]: 27.3%
viability, T/C [19]: 27.2%
viability, T/C [20]: 37%
viability, T/C [21]: 35.9%
viability, T/C [22]: 39.5%
viability, T/C [39]: 34.2%
viability, T/C [40]: 31.1%
viability, T/C [41]: 51.7%
viability, T/C [42]: 30.7%
viability, T/C [43]: 33.7%
viability, T/C [44]: 40.6%

Cn1nccc1Nc1nccc(-c2cc3c(s2)C(C)(C)N(CCN2CCOCC2)C3=O)n1
viability, T/C (compound 0.0316 µM): 98.2% [middle of 5 runs]
viability, T/C (compound 0.1 µM): 103% [middle of 5 runs]
viability, T/C (compound 0.316 µM): 99.5% [middle of 5 runs]
viability, T/C (compound 1 µM): 62.4% [middle of 5 runs]
viability, T/C (compound 3.16 µM): 32.8% [middle of 5 runs]
viability, T/C (compound 10 µM): 30.4% [middle of 5 runs]
IC50 (curve of compound): 1.65 µM [middle of 5 runs]

CC(C)n1nc(-c2ccc3oc(N)nc3c2)c2c(N)ncnc21 + CNCc1ccccc1-c1csc(C(C)Nc2nc(C)nc3cc(OC)c(OC)cc23)c1
pIC50 (second compound 0.1 µM): 8.35
pIC50 (second compound 0.316 µM): 8.65
pIC50 (second compound 1 µM): 8.75
pIC50 (second compound 3.16 µM): > 9.50
pIC50 (second compound 10 µM): > 9.50
viability, T/C [23]: 113%
viability, T/C [24]: 86.7%
viability, T/C [25]: 57.9%
viability, T/C [26]: 32.5%
viability, T/C [3]: 22.2%
viability, T/C [4]: 15.9%
viability, T/C [27]: 89.5%
viability, T/C [28]: 69.2%
viability, T/C [29]: 40.2%
viability, T/C [30]: 27.9%
viability, T/C [8]: 19.5%
viability, T/C [9]: 15.9%
viability, T/C [31]: 75.9%
viability, T/C [32]: 63.1%
viability, T/C [33]: 35.3%
viability, T/C [34]: 28.9%
viability, T/C [13]: 17.3%
viability, T/C [14]: 14.1%
viability, T/C [35]: 0.36%
viability, T/C [36]: 0.49%
viability, T/C [37]: 0.36%
viability, T/C [38]: 0.46%
viability, T/C [18]: 2.66%
viability, T/C [19]: 0.67%
viability, T/C (second compound 10 µM, first compound 0.000316 µM): 0.46%
viability, T/C (second compound 10 µM, first compound 0.001 µM): 0.4%
viability, T/C (second compound 10 µM, first compound 0.00316 µM): 0.42%
viability, T/C [39]: 0.42%
viability, T/C [40]: 0.38%
viability, T/C [41]: 0.52%

CC1COCCN1c1cc(-c2ccnn2C)c2ccnc(-c3ccn[nH]3)c2n1 (configuration not stated) + C=CC(=O)N1CCN(c2nc(=O)n(-c3c(C)ccnc3C(C)C)c3nc(-c4c(O)cccc4F)c(F)cc23)C(C)C1
pIC50 (second compound 0.1 µM): 7.57
pIC50 (second compound 0.316 µM): 7.48
pIC50 (second compound 1 µM): 7.63
pIC50 (second compound 3.16 µM): 7.92
pIC50 (second compound 10 µM): > 8.00
viability, T/C [26]: 61.3%
viability, T/C [3]: 48.3%
viability, T/C [4]: 15.2%
viability, T/C [5]: 11.7%
viability, T/C [6]: 11.4%
viability, T/C [7]: 8.87%
viability, T/C [30]: 66.7%
viability, T/C [8]: 51.5%
viability, T/C [9]: 19.5%
viability, T/C [10]: 12.7%
viability, T/C [11]: 10.7%
viability, T/C [12]: 9.1%
viability, T/C [34]: 65.9%
viability, T/C [13]: 44.2%
viability, T/C [14]: 19.3%
viability, T/C [15]: 11.1%
viability, T/C [16]: 10.5%
viability, T/C [17]: 10.7%
viability, T/C [38]: 53.1%
viability, T/C [18]: 33.5%
viability, T/C [19]: 15.5%
viability, T/C [20]: 11.7%
viability, T/C [21]: 13.3%
viability, T/C [22]: 12.1%
viability, T/C [39]: 33%
viability, T/C [40]: 23.9%
viability, T/C [41]: 18.1%
viability, T/C [42]: 15.5%
viability, T/C [43]: 13.8%
viability, T/C [44]: 11.3%
